In ChEMBL document CHEMBL3232945 (Eur J Med Chem, 2014):

Key:
Rattus norvegicus [1] = test: Toxicity in […] normotensive Wistar rat assessed as mean arterial pressure at 40 mg/kg, ip after 60 mins (reference value: 95.07 +/- 1.973 mmHg); format: organism-based, Artery; set-up: dose 40 mg/kg, route intraperitoneal; settings: in vivo, 1 h
Rattus norvegicus [2] = test: Antihypertensive activity in Wistar rat assessed as mean arterial pressure at 40 mg/kg, ip measured immediately at 0 min (reference value: 194.08 +/- 1.962 mmHg); format: functional, Artery; settings: route intraperitoneal
Rattus norvegicus [3] = test: Antihypertensive activity in Wistar rat assessed as mean arterial pressure at 40 mg/kg, ip after 15 mins (reference value: 195.68 +/- 1.623 mmHg); format: functional, Artery; settings: route intraperitoneal
Rattus norvegicus [4] = test: Antihypertensive activity in Wistar rat assessed as mean arterial pressure at 40 mg/kg, ip after 30 mins (reference value: 194.72 +/- 1.002 mmHg); format: functional, Artery; settings: route intraperitoneal
Rattus norvegicus [5] = test: Antihypertensive activity in Wistar rat assessed as mean arterial pressure at 40 mg/kg, ip after 45 mins (reference value: 193.96 +/- 0.865 mmHg); format: functional, Artery; settings: route intraperitoneal
Rattus norvegicus [6] = test: Antihypertensive activity in Wistar rat assessed as mean arterial pressure at 40 mg/kg, ip after 60 mins (reference value: 195.11 +/- 0.531 mmHg); format: functional, Artery; settings: route intraperitoneal
Rattus norvegicus [7] = test: Toxicity in anesthetized-normotensive Wistar rat assessed as heart rate at 40 mg/kg, ip measured immediately at 0 min (reference value: 316.62 +/- 9.643 bpm); format: organism-based; set-up: dose 40 mg/kg, route intraperitoneal; settings: in vivo, 0 h
Rattus norvegicus [8] = test: Toxicity in anesthetized-normotensive Wistar rat assessed as heart rate at 40 mg/kg, ip after 15 mins (reference value: 313.93 +/- 9.912 bpm); format: organism-based; set-up: dose 40 mg/kg, route intraperitoneal; settings: in vivo, 0.25 h
Rattus norvegicus [9] = test: Toxicity in anesthetized-normotensive Wistar rat assessed as heart rate at 40 mg/kg, ip after 30 mins (reference value: 317.68 +/- 7.631 bpm); format: organism-based; set-up: dose 40 mg/kg, route intraperitoneal; settings: in vivo, 0.5 h
Rattus norvegicus [10] = test: Toxicity in anesthetized-normotensive Wistar rat assessed as heart rate at 40 mg/kg, ip after 45 mins (reference value: 316.82 +/- 8.452 bpm); format: organism-based; set-up: dose 40 mg/kg, route intraperitoneal; settings: in vivo, 0.75 h
Rattus norvegicus [11] = test: Toxicity in anesthetized-normotensive Wistar rat assessed as heart rate at 40 mg/kg, ip after 60 mins (reference value: 314.96 +/- 9.442 bpm); format: organism-based; set-up: dose 40 mg/kg, route intraperitoneal; settings: in vivo, 1 h
Rattus norvegicus [12] = test: Antiarrhythmic activity in barium chloride-induced Wistar rat assessed as increase in appearance time of arrhythmia at 40 mg/kg, ip administered 60 mins before barium chloride challenge (reference value: 129.4 +/- 4.373 sec); format: functional, Heart; settings: route intraperitoneal
Rattus norvegicus [13] = test: Antiarrhythmic activity in barium chloride-induced Wistar rat assessed as increase in mortality time at 40 mg/kg, ip administered 60 mins before barium chloride challenge (reference value: 682.8 +/- 9.656 secs); format: functional, Heart; settings: route intraperitoneal
Rattus norvegicus [14] = test: Toxicity in anaesthetized-Wistar rat assessed as P-Q ECG interval at 40 mg/kg, ip measured immediately at 0 min (reference value: 52.4 +/- 0.927 ms); format: organism-based; set-up: dose 40 mg/kg, route intraperitoneal; settings: in vivo, 0 h
Rattus norvegicus [15] = test: Toxicity in anaesthetized-Wistar rat assessed as QRS ECG interval at 40 mg/kg, ip measured immediately at 0 min (reference value: 19.6 +/- 1.142 ms); format: organism-based; set-up: dose 40 mg/kg, route intraperitoneal; settings: in vivo, 0 h
Rattus norvegicus [16] = test: Toxicity in anaesthetized-Wistar rat assessed as Q-T ECG interval at 40 mg/kg, ip measured immediately at 0 min (reference value: 78.8 +/- 1.030 ms); format: organism-based; set-up: dose 40 mg/kg, route intraperitoneal; settings: in vivo, 0 h
Rattus norvegicus [17] = test: Toxicity in anaesthetized-Wistar rat assessed as P-Q ECG interval at 40 mg/kg, ip after 15 mins (reference value: 52.2 +/- 1.158 ms); format: organism-based; set-up: dose 40 mg/kg, route intraperitoneal; settings: in vivo, 0.25 h
Rattus norvegicus [18] = test: Toxicity in anaesthetized-Wistar rat assessed as QRS ECG interval at 40 mg/kg, ip after 15 mins (reference value: 18.9 +/- 1.563 ms); format: organism-based; set-up: dose 40 mg/kg, route intraperitoneal; settings: in vivo, 0.25 h
Rattus norvegicus [19] = test: Toxicity in anaesthetized-Wistar rat assessed as Q-T ECG interval at 40 mg/kg, ip after 15 mins (reference value: 79.4 +/- 1.270 ms); format: organism-based; set-up: dose 40 mg/kg, route intraperitoneal; settings: in vivo, 0.25 h
Rattus norvegicus [20] = test: Toxicity in anaesthetized-Wistar rat assessed as P-Q ECG interval at 40 mg/kg, ip after 30 mins (reference value: […] +/- 0.927 ms); format: organism-based; set-up: dose 40 mg/kg, route intraperitoneal; settings: in vivo, 0.5 h
Rattus norvegicus [21] = test: Toxicity in anaesthetized-Wistar rat assessed as QRS ECG interval at 40 mg/kg, ip after 30 mins (reference value: 19.9 +/- 1.393 ms); format: organism-based; set-up: dose 40 mg/kg, route intraperitoneal; settings: in vivo, 0.5 h
Rattus norvegicus [22] = test: Toxicity in anaesthetized-Wistar rat assessed as Q-T ECG interval at 40 mg/kg, ip after 30 mins (reference value: 78.3 +/- 0.860 ms); format: organism-based; set-up: dose 40 mg/kg, route intraperitoneal; settings: in vivo, 0.5 h
Rattus norvegicus [23] = test: Toxicity in anaesthetized-Wistar rat assessed as P-Q ECG interval at 40 mg/kg, ip after 45 mins (reference value: 52.5 +/- 0.780 ms); format: organism-based; set-up: dose 40 mg/kg, route intraperitoneal; settings: in vivo, 0.75 h
Rattus norvegicus [24] = test: Toxicity in anaesthetized-Wistar rat assessed as QRS ECG interval at 40 mg/kg, ip after 45 mins (reference value: 20.2 +/- 1.348 ms); format: organism-based; set-up: dose 40 mg/kg, route intraperitoneal; settings: in vivo, 0.75 h
Rattus norvegicus [25] = test: Toxicity in anaesthetized-Wistar rat assessed as P-Q ECG interval at 40 mg/kg, ip after 60 mins (reference value: […] +/- 0.924 ms); format: organism-based; set-up: dose 40 mg/kg, route intraperitoneal; settings: in vivo, 1 h
Rattus norvegicus [26] = test: Toxicity in anaesthetized-Wistar rat assessed as QRS ECG interval at 40 mg/kg, ip after 60 mins (reference value: 19.3 +/- 0.873 ms); format: organism-based; set-up: dose 40 mg/kg, route intraperitoneal; settings: in vivo, 1 h
Rattus norvegicus [27] = test: Toxicity in anaesthetized-Wistar rat assessed as Q-T ECG interval at 40 mg/kg, ip after 60 mins (reference value: 79.7 +/- 0.965 ms); format: organism-based; set-up: dose 40 mg/kg, route intraperitoneal; settings: in vivo, 1 h
Rattus norvegicus [28] = test: Toxicity in […] normotensive Wistar rat assessed as mean arterial pressure at 40 mg/kg, ip measured immediately at 0 min (reference value: 94.21 +/- 2.065 mmHg); format: organism-based, Artery; set-up: dose 40 mg/kg, route intraperitoneal; settings: in vivo, 0 h
Rattus norvegicus [29] = test: Toxicity in […] normotensive Wistar rat assessed as mean arterial pressure at 40 mg/kg, ip after 15 mins (reference value: 93.81 +/- 1.543 mmHg); format: organism-based, Artery; set-up: dose 40 mg/kg, route intraperitoneal; settings: in vivo, 0.25 h
Rattus norvegicus [30] = test: Toxicity in […] normotensive Wistar rat assessed as mean arterial pressure at 40 mg/kg, ip after 30 mins (reference value: 94.68 +/- 1.213 mmHg); format: organism-based, Artery; set-up: dose 40 mg/kg, route intraperitoneal; settings: in vivo, 0.5 h
Rattus norvegicus [31] = test: Toxicity in […] normotensive Wistar rat assessed as mean arterial pressure at 40 mg/kg, ip after 45 mins (reference value: 94.83 +/- 0.943 mmHg); format: organism-based, Artery; set-up: dose 40 mg/kg, route intraperitoneal; settings: in vivo, 0.75 h

SMILES	Activity (Rattus norvegicus [1]) [mmHg]	Activity (Rattus norvegicus [2]) [mmHg]	Activity (Rattus norvegicus [3]) [mmHg]	Activity (Rattus norvegicus [4]) [mmHg]	Activity (Rattus norvegicus [5]) [mmHg]	Activity (Rattus norvegicus [6]) [mmHg]	Activity (Rattus norvegicus [7]) [bpm]	Activity (Rattus norvegicus [8]) [bpm]	Activity (Rattus norvegicus [9]) [bpm]	Activity (Rattus norvegicus [10]) [bpm]	Activity (Rattus norvegicus [11]) [bpm]	Time (Rattus norvegicus [12]) [s]	Time (Rattus norvegicus [13]) [s]	Activity (Rattus norvegicus [14]) [ms]	Activity (Rattus norvegicus [15]) [min]	Activity (Rattus norvegicus [16]) [min]	Activity (Rattus norvegicus [17]) [min]	Activity (Rattus norvegicus [18]) [min]	Activity (Rattus norvegicus [19]) [min]	Activity (Rattus norvegicus [20]) [min]	further results
O=C1/C(=C\c2ccccc2)S/C(=N\c2ccccc2)N1CC(O)CN1CCN(Cc2ccccc2)CC1 (configuration not stated)	85.44	194.51	179.02	160.63	166.41	179.51	333.62	312.34	283.52	298.21	312.21	296.9	986.7	49.8	23.4	74.3	50.4	23.2	74.9	50.9	Activity (Rattus norvegicus [21]): 23.8 ms; Activity (Rattus norvegicus [22]): 73.2 min; Activity (Rattus norvegicus [23]): 51.3 min; Activity (Rattus norvegicus [24]): 23.1 min; Activity (Rattus norvegicus [25]): 52.7 min; Activity (Rattus norvegicus [26]): 23.7 min; Activity (Rattus norvegicus [27]): 74.2 ms; Activity (Rattus norvegicus [28]): 95.09 mmHg; Activity (Rattus norvegicus [29]): 92.1 mmHg; Activity (Rattus norvegicus [30]): 78.19 mmHg; Activity (Rattus norvegicus [31]): 72.57 mmHg
O=C1/C(=C\c2ccccc2)S/C(=N\c2ccccc2)N1CC(O)CN1CCCC1 (configuration not stated)	73.12	196.1	165.01	148.37	149.39	177.56	318.73	298.54	256.85	287.15	309.32	285.3	918.8	50.2	20.5	70.6	51.6	21.3	71.2	54.3	Activity (Rattus norvegicus [21]): 22.5 ms; Activity (Rattus norvegicus [22]): 72.6 min; Activity (Rattus norvegicus [23]): 53.3 min; Activity (Rattus norvegicus [24]): 21.1 min; Activity (Rattus norvegicus [25]): 52.8 min; Activity (Rattus norvegicus [26]): 20.6 min; Activity (Rattus norvegicus [27]): 70.9 ms; Activity (Rattus norvegicus [28]): 93.02 mmHg; Activity (Rattus norvegicus [29]): 84.63 mmHg; Activity (Rattus norvegicus [30]): 74.76 mmHg; Activity (Rattus norvegicus [31]): 69.69 mmHg
